Results from patent publication US8722937B2 (priority 2006, dated 2014).
≈ marks a conversion by molar mass, not a printed value. Where two headings read alike, the source gives them in different places.

What was measured:
[1] = biological target: T1, FabH derived from E. coli (ecFabH) (Escherichia coli, UniProt P0A6R0); assay: FabH enzyme assay (coupled trichloroacetic acid precipitation assay), ecFabH; type: biochemical; details: for IC50: 15 min preincubation at 23° C., duplicate assays, read-out: IC50 against ecFabH; for inhibition at 5 µM: 5 μM of test compound, read-out: Percent inhibition of FabH derived from E. coli, ecFabH (%)
T1 construct: polyhistidine (N); made in house; host or cells: E. coli
T1 sequence (P0A6R0 1-317): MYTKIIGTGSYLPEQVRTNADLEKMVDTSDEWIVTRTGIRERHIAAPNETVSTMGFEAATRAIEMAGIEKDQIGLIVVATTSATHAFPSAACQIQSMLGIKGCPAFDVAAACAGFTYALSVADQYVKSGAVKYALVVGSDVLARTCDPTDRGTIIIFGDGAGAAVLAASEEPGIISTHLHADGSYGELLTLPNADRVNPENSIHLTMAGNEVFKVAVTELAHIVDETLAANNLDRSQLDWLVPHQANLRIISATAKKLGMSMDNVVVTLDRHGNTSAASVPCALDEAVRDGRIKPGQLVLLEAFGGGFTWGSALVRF

[2] = biological target: FabH derived from M. tuberculosis (mtFabH) (Mycobacterium tuberculosis, UniProt P9WNG3); details: for IC50: read-out: IC50 against mtFabH
Chain of FabH derived from M. tuberculosis (mtFabH) (P9WNG3 whole entry): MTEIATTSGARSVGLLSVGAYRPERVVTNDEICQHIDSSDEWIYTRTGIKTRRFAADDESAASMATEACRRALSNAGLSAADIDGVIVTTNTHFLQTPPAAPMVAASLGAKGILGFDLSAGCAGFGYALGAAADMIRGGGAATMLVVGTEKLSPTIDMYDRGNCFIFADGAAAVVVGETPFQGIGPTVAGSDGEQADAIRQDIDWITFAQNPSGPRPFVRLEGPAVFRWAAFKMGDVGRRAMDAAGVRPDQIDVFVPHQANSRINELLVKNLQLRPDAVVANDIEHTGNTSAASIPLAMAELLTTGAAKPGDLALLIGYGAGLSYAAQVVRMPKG

S. aureus (ATCC 25923) [3] = assay: microbe, parasite or virus in culture; type: cell-based, Staphylococcus aureus; details: for Zones of growth inhibition, S. aureus / zone of inhibition at 20 µg/disc: 24 h, 37° C.; for zone of inhibition at 20 µg/disc: Staphylococcus aureus, ATCC25923
[4] = test system: methicillin-resistant S. aureus (MRSA); assay: microbe, parasite or virus in culture; type: cell-based, Staphylococcus aureus; details: for Zones of growth inhibition, MRSA / zone of inhibition at 20 µg/disc: 24 h, 37° C.; for zone of inhibition at 20 µg/disc: Staphylococcus aureus, MRSA, read-out: Average zones of growth inhibition of MRSA (USF-652-659, 919-920)
S. aureus (ATCC 25923) [5] = assay: Agar dilution minimum inhibitory concentration (MIC), S. aureus; type: cell-based, Staphylococcus aureus; details: Staphylococcus aureus
B. anthracis (USF 848) [6] = assay: microbe, parasite or virus in culture; type: cell-based, Bacillus anthracis; details: Bacillus anthracis, 24 h, 37° C.
B. anthracis (USF 848) [7] = assay: microbe, parasite or virus in culture; type: cell-based, Bacillus anthracis; details: Bacillus anthracis, read-out: Minimum inhibitory concentration (MIC) against B. anthracis (USF 848)
[8] = test system: E. coli (K12; ATCC 23590); assay: Kirby-Bauer zones of inhibition, E. coli; type: cell-based, Escherichia coli; details: K12 strain, ATCC 23590; for Zone of Inhibition (mm), E. coli, zones of partial inhibition: number in parentheses; for Zone of Inhibition (mm), E. coli: number outside parentheses
[9] = test system: E. coli (K12; ATCC 23590); assay: Minimum inhibitory concentration (MIC), E. coli; type: cell-based; details: Escherichia coli, ATCC23590, read-out: MIC (μg/mL) against E. coli
[10] = read-out: Zones of growth inhibition of S. aureus (ATCC 25923)
[11] = read-out: Zones of growth inhibition of S. aureus (ATCC 25923), areas of partial inhibition
[12] = ATCC25923, serial dilution in 24-well plate, NCCLS, read-out: Minimum inhibitory concentration (MIC) against S. aureus (ATCC 25923)
[13] = read-out: Zones of growth inhibition of B. anthracis (USF 848)
[14] = read-out: Zones of growth inhibition of B. anthracis (USF 848), areas of partial growth inhibition
[15] = ATCC 25923 / MSSA, read-out: MIC (MSSA)

COC1C(=O)N(SC)C1c1ccccc1Cl (stereo not drawn) [Compound 2a]
Percent inhibition of ecFabH ([1]; 1 μM of test compound): 89%
Percent inhibition of mtFabH ([2]; 10 µM): 75%

CSSCCNC(=O)CCNC(=O)[C@H](O)C(C)(C)COP(=O)(O)OP(=O)(O)OC[C@H]1O[C@@H](n2cnc3c(N)ncnc32)[C@H](O)[C@@H]1OP(=O)(O)O [Compound 25a]
IC50 [1]: 57.1 ± 4.48 µM
Zones of growth inhibition, S. aureus (S. aureus (ATCC 25923) [3]): 0 mm
Zones of growth inhibition, MRSA [4]: 0 mm
IC50 [2]: > 300 µM

CCC(C)SSCCNC(=O)CCNC(=O)[C@H](O)C(C)(C)COP(=O)(O)OP(=O)(O)OC[C@H]1O[C@@H](n2cnc3c(N)ncnc32)[C@H](O)[C@@H]1OP(=O)(O)O (stereo partly drawn) [Compound 25c]
IC50 [1]: > 300 µM
Zones of growth inhibition, S. aureus (S. aureus (ATCC 25923) [3]): 0 mm
Zones of growth inhibition, MRSA [4]: 0 mm
IC50 [2]: > 300 µM

CCCCSSCCNC(=O)CCNC(=O)[C@H](O)C(C)(C)COP(=O)(O)OP(=O)(O)OC[C@H]1O[C@@H](n2cnc3c(N)ncnc32)[C@H](O)[C@@H]1OP(=O)(O)O [Compound 25d]
IC50 [1]: > 300 µM
IC50 [2]: > 300 µM

CCCCCCCCSSCCNC(=O)CCNC(=O)[C@H](O)C(C)(C)COP(=O)(O)OP(=O)(O)OC[C@H]1O[C@@H](n2cnc3c(N)ncnc32)[C@H](O)[C@@H]1OP(=O)(O)O [Compound 25e]
IC50 [1]: > 300 µM
IC50 [2]: 23.2 ± 4.6 µM

CCCCCCCCCCSSCCNC(=O)CCNC(=O)[C@H](O)C(C)(C)COP(=O)(O)OP(=O)(O)OC[C@H]1O[C@@H](n2cnc3c(N)ncnc32)[C@H](O)[C@@H]1OP(=O)(O)O [Compound 25f]
IC50 [1]: > 300 µM
IC50 [2]: 2.6 ± 1.6 µM

CCSSc1ccc([N+](=O)[O-])cc1 [Compound 38b, Ethyl p-nitrophenyl Disulfide]
inhibition at 5 µM [1]: 98%
zone of inhibition at 20 µg/disc (S. aureus (ATCC 25923) [3]; [10]): 47 mm
zone of inhibition at 20 µg/disc (S. aureus (ATCC 25923) [3]; [11]): 54 mm
zone of inhibition at 20 µg/disc [4]: 38 mm
MIC (S. aureus (ATCC 25923) [5]; [12]): 32 µg/mL (≈ 149 µM)
zone of inhibition at 20 µg/disc (B. anthracis (USF 848) [6]; [13]): 56 mm
zone of inhibition at 20 µg/disc (B. anthracis (USF 848) [6]; [14]): 67 mm
MIC (B. anthracis (USF 848) [7]): 0.25 µg/mL (≈ 1.16 µM)
Zone of Inhibition (mm), E. coli, zones of partial inhibition [8]: 23 mm
Zone of Inhibition (mm), E. coli [8]: 15 mm
MIC [9]: 16 µg/mL (≈ 74.3 µM)

CC(C)SSc1ccc([N+](=O)[O-])cc1 [Compound 38c, Isopropyl p-nitrophenyl disulfide]
inhibition at 5 µM [1]: 98.5%
Zone (MSSA) (S. aureus (ATCC 25923) [3]): 47 mm
zone of inhibition at 20 µg/disc (S. aureus (ATCC 25923) [3]; [10]): 68 mm
zone of inhibition at 20 µg/disc (S. aureus (ATCC 25923) [3]; [11]): 85 mm
Zone (MRSA) [4]: 70 mm
zone of inhibition at 20 µg/disc [4]: 75 mm
MIC (S. aureus (ATCC 25923) [5]; [15]): 0.8 µg/mL (≈ 3.49 µM)
MIC (S. aureus (ATCC 25923) [5]; [12]): 0.4 µg/mL (≈ 1.74 µM)
zone of inhibition at 20 µg/disc (B. anthracis (USF 848) [6]; [13]): 71 mm
MIC (B. anthracis (USF 848) [7]): < 0.125 µg/mL
Zone of Inhibition (mm), E. coli, zones of partial inhibition [8]: (11) mm
MIC [9]: 96 µg/mL (≈ 419 µM)

CCC(C)SSc1ccc([N+](=O)[O-])cc1 (stereo not drawn) [Compound 38d, Sec-Butyl p-nitrophenyl Disulfide]
inhibition at 5 µM [1]: 96%
Zone (MSSA) (S. aureus (ATCC 25923) [3]): 67 mm
zone of inhibition at 20 µg/disc (S. aureus (ATCC 25923) [3]; [10]): 47 mm
zone of inhibition at 20 µg/disc (S. aureus (ATCC 25923) [3]; [11]): 68 mm
Zone (MRSA) [4]: 54 mm
zone of inhibition at 20 µg/disc [4]: 54 mm
MIC (S. aureus (ATCC 25923) [5]; [15]): 0.4 µg/mL (≈ 1.64 µM)
MIC (S. aureus (ATCC 25923) [5]; [12]): 0.8 µg/mL (≈ 3.29 µM)
zone of inhibition at 20 µg/disc (B. anthracis (USF 848) [6]; [13]): 56 mm
zone of inhibition at 20 µg/disc (B. anthracis (USF 848) [6]; [14]): 62 mm
MIC (B. anthracis (USF 848) [7]): < 0.125 µg/mL
Zone of Inhibition (mm), E. coli, zones of partial inhibition [8]: (10) mm
MIC [9]: 128 µg/mL (≈ 526 µM)

CCCSSc1ccc([N+](=O)[O-])cc1 [Compound 38e, p-Nitrophenyl n-propyl Disulfide]
inhibition at 5 µM [1]: 91%
zone of inhibition at 20 µg/disc (S. aureus (ATCC 25923) [3]; [10]): 36 mm
zone of inhibition at 20 µg/disc (S. aureus (ATCC 25923) [3]; [11]): 43 mm
zone of inhibition at 20 µg/disc [4]: 38 mm
MIC (S. aureus (ATCC 25923) [5]; [12]): 24 µg/mL (≈ 105 µM)
zone of inhibition at 20 µg/disc (B. anthracis (USF 848) [6]; [13]): 49 mm
zone of inhibition at 20 µg/disc (B. anthracis (USF 848) [6]; [14]): 57 mm
MIC (B. anthracis (USF 848) [7]): 1 µg/mL (≈ 4.36 µM)
Zone of Inhibition (mm), E. coli, zones of partial inhibition [8]: 21 mm
Zone of Inhibition (mm), E. coli [8]: 16 mm
MIC [9]: 64 µg/mL (≈ 279 µM)
